These results are taken from patent US8202554B2, “Extract of the family dioscoreaceae and composition for preventing or treating peripheral neuropathy comprising the same” (priority 2005, dated 2012).

Assay [1] relates to sorbitol in the sciatic nerve. In words: Change in amount of sorbitol in sciatic nerve of diabetes-induced mouse (HPLC). The conditions noted are these: diabetes-induced mice, 10 mg/kg p.o. three times per week, 2 weeks. Format: in vivo, alloxan-induced diabetic ICR mice. On the procedure:
The therapeutic effect of the compound according to the present invention on the neuropathy was identified by measuring a change in the amount of sorbitol in the sciatic nerve.
7-week old male ICR mice underwent alimentary abstinence for 18 hours, and then alloxan dissolved in a physiological saline was once injected to them by intraperitoneal injection in an amount of 160 mg/kg to induce diabetes. Mice that maintained their fasting blood sugar to 200 mg/dl or more for one week, that is, diabetes-induced mice were selected and then divided into a control group (n=3), and a compound-administered group (n=3). The control group was administered with 0.2 ml of a solution of dimethylsulfoxide:ethanol (3:1), and the compound-administered group was administered with the compound of Formula 2 dissolved in a solution of dimethylsulfoxide:ethanol (3:1) in an amount of 10 mg/kg. 7-week old male ICR mice in which diabetes was not induced were grouped as a normal group (n=3), and the normal group was administered with 0.2 ml of a solution of dimethylsulfoxide:ethanol (3:1). […] Administration-completed mice were sacrificed by cervical dislocation, and then the amount of the sorbitol in the sciatic nerve was measured by HPLC (see FIG. 8). […]

Assay [2] deals with endogenous nerve growth factor. Description: Level of nerve growth factor in mouse serum (ELISA). The conditions noted are these: normal male ICR mice, 10 mg/kg orally once, after 24 hours. It counts as in vivo. On the procedure: The compound of Formula 2 was dissolved in 0.2 ml of a solution of dimethyl-sulfoxide:ethanol (3:1), and then orally administered once to 7-week old male ICR mice (n=7) in an amount of 10 mg/kg. After 24 hours, the amount of an endogenous nerve growth factor was measured by ELISA. As a control group, an ICR mouse was orally administered once with 0.2 ml of the dimethylsulfoxide:ethanol (3:1). Then, the amount of a nerve growth factor in the control group was measured in the same manner as described above.

The subject of assay [3] is endogenous nerve growth factor. Description: Level of nerve growth factor in sciatic nerve of diabetes-induced mouse (ELISA). To be noted: diabetes-induced mice, 10 mg/kg P.O three times per week, one month. It counts as in vivo, alloxan-induced diabetic ICR mice. On the procedure: 7-week old male ICR mice underwent alimentary abstinence for 18 hours, and then alloxan dissolved in a physiological saline was once injected to them by intraperitoneal injection in an amount of 160 mg/kg to induce diabetes. Mice that maintained their fasting blood sugar to 200 mg/dl or more for one week, that is, diabetes-induced mice were selected and then divided into a control group (n=5), and a compound-administered group (n=5). The control group was administered with 0.2 ml of a solution of dimethylsulfoxide:ethanol (3:1), and the compound-administered group was administered with the compound of Formula 2 dissolved in a solution of dimethylsulfoxide:ethanol (3:1) in an amount of 10 mg/kg. The all groups were orally administered three times per one week, and the entire administration period was one month. The amount of an endogenous nerve growth factor in the sciatic nerve was measured by ELISA (see FIG. 7)
Accordingly, it is considered that the results shown in FIGS. 5 and 6 result from the nerve protecting function of the nerve growth factor.
A general note: ELISA stands for enzyme-linked immunosorbent assay.

For assay [4], the system named is sciatic nerve of diabetes-induced mouse. Description: Transmission speed of motor nerve and sensory nerve of sciatic nerve in diabetes-induced mouse. To be noted: diabetes-induced mice, 10 mg/kg p.o. three times per week. It counts as in vivo, alloxan-induced diabetic ICR mice. The procedure: The therapeutic effect of the compound according to the present invention on the diabetic neuropathy, one of the multiple neuropathies, was identified by measuring the effect of the compound according to the present invention on the transmission speed of the motor nerve and sensory nerve in the sciatic nerve.
7-week old male ICR mice underwent alimentary abstinence for 18 hours, and then alloxan dissolved in a physiological saline was once injected to them by intraperitoneal injection in an amount of 160 mg/kg to induce diabetes. Mice that maintained their fasting blood sugar to 200 mg/dl or more for one week, that is, diabetes-induced mice were selected and then divided into a control group (n=7), and a compound-administered group (n=7). The control group was administered with 0.2 ml of a solution of dimethylsulfoxide:ethanol (3:1), and the compound-administered group was administered with the compound of Formula 2 dissolved in a solution of dimethylsulfoxide:ethanol (3:1) in an amount of 10 mg/kg. 7-week old male ICR mice in which diabetes was not induced were grouped as a normal group (n=7), and the normal group was administered with 0.2 ml of a solution of dimethylsulfoxide:ethanol (3:1). […] Administration-completed mice were sacrificed by cervical dislocation, and then the skin and muscle in the femoral region were quickly removed. Then, left and right sciatic nerves were respectively separated in a length of 20 mm or more and stored in a physiological saline while air flows through the physiological saline. The separated sciatic nerves were placed on a 20 mm round measurement plate. Then, a sensor and a stimulating probe were connected to respective neuroterminals and the electrical conductivity was measured using a digital storage oscilloscope to assess the nerve transmission speed (see FIGS. 5 and 6.)
In general, the myelin is a phospholipid membrane surrounding axons with several layers, and also called as myelin sheath. […]

Assay [5] shares this test system. Description: Histological comparison of sciatic nerve of diabetes-induced mouse. It counts as in vivo, alloxan-induced diabetic ICR mice. The conditions noted are these: diabetes-induced mice, compound 10 mg/kg p.o. three times per week, 2 months; toluidine blue, 600x/1200x. The procedure:
The therapeutic effect of the compound according to the present invention on the neuropathy was identified by measuring a histological change of the sciatic nerve.
7-week old male ICR mice underwent alimentary abstinence for 18 hours, and then alloxan dissolved in a physiological saline was once injected to them by intraperitoneal injection in an amount of 160 mg/kg to induce diabetes. Mice that maintained their fasting blood sugar to 200 mg/dl or more for one week, that is, diabetes-induced mice were selected and then divided into a control group (n=5), an extract-administered group (n=5), and a compound-administered group (n=3). The control group was […] with 0.2 ml of a solution of dimethylsulfoxide:ethanol (3:1), the extract-administered group was administered with the extract obtained according to Example 1 dissolved in a solution of dimethylsulfoxide:ethanol (3:1) in an amount of 100 mg/kg, and the compound-administered group was administered with the compound of Formula 2 dissolved in a solution of dimethylsulfoxide:ethanol (3:1) in an amount of 10 mg/kg. All groups were treated three times by oral administration per one week, and the entire administration period was 2 months. […]

A further assay has as its system PC 12 cell. Description: Measurement of neurite outgrowth. Format: cell-based. To be noted: PC12 cells, neurite length measured after 48 hours, vs ethanol control. The procedure: In an incubator with conditions including 5% CO2 and a temperature of 37° C., PC 12 cell (pheochromocytoma, ATCC Number: CRL-1721) was cultured in a RPMI 1640 medium supplemented with horse serum (10%, v/v), fetal bovine serum (5%, v/v), and 1% penicillin-streptomycin
In order to find the effect of the compound of Formula 2 on the neurite outgrowth, the mediums supplemented with 2% horse serum, 1% fetal bovine serum, and 1% penicillin-streptomycin were added to each 6-well plate coated with poly-d-lysine and then the PC12 cells were inoculated in 5×10^4 cells each well. After 24 hours, these wells were treated with 10 □/ml of ethanol, 10 □/□ of the compound of Formula 2, and 50 ng/□ of a nerve growth factor (R&D system, USA), respectively. Then, after 48 hours, the length of the neurite was measured using an inverted image contrast microscope (CK-2, Olympus, USA) (See FIG. 1 and FIG. 2)

In assay [6] the test system is endogenous nerve growth factor. Description: Level of nerve growth factor in serum of diabetes-induced mouse (ELISA). Format: in vivo, alloxan-induced diabetic ICR mice. The conditions noted are these: diabetes-induced mice, compound 10 mg/kg p.o., three times per week, one month. The procedure: An alloxan-induced diabetic mouse was prepared as an animal model having diabetic neuropathy, one of the multiple neuropathies.
7-week old male ICR mice underwent alimentary abstinence for 18 hours, and then alloxan dissolved in a physiological saline was once injected to them by intraperitoneal injection in an amount of 160 mg/kg to induce diabetes. Mice that maintained their fasting blood sugar to 200 mg/dl or more for one week, that is, diabetes-induced mice were selected and then divided into a control group (n=10), an extract-administered group (n=10), and a compound-administered group (n=10). The control group was administered with 0.2 ml of a solution of dimethylsulfoxide:ethanol (3:1), the extract-administered group was administered with the extract obtained according to Example 1 dissolved in a solution of dimethylsulfoxide:ethanol (3:1) in an amount of 100 mg/kg, and the compound-administered group was administered with the compound of Formula 2 dissolved in a solution of dimethylsulfoxide:ethanol (3:1) in an amount of 10 mg/kg. The all groups were orally administered three times per one week, and the entire administration period was one month. The amount of an endogenous nerve growth factor in the serum was measured by ELISA. […]

Turning to `C[C@@H]1CC[C@@]2(OC1)O[C@H]1C[C@H]3[C@@H]4CC=C5C[C@@H](O)CC[C@]5(C)[C@H]4CC[C@]3(C)[C@H]1[C@@H]2C` [compound of Formula 2, 3beta, 25R-spirost-5-en-3-ol], in assay [1], the “sorbitol in the sciatic nerve, lower than diabetes-induced control group” value is 10%. The “nerve growth factor in the serum relative to control group” value in assay [2] is reported as “about 2.5 times”. Further, the “nerve growth factor in the sciatic nerve, higher than vehicle control group” value in assay [3] is “about 30%”. Also, in assay [4] (one month), the “transmission speed of the sensory nerve, higher than diabetes-induced control group” value is 25%. Moreover, in assay [4] (two months), the “transmission speed of the motor nerve, higher than control group” value is 40% and the “transmission speed of the sensory nerve, higher than control group” value amounted to 45%. In assay [5], the “histology of axon and myelin in the central part of the sciatic nerve” value is “clearly observed”. For the same molecule, the neurite outgrowth result in the assay with PC 12 cell (10 □/□ of the compound) was “neurite outgrowth was induced”. The “endogenous nerve growth factor in the serum relative to vehicle control group” value in assay [6] is given as “four”.

Consider “nerve growth factor: nerve growth factor (R&D system, USA), positive control for neurite outgrowth [reference compound]”, for which the neurite outgrowth entry in the assay on PC 12 cell (50 ng/□ of nerve growth factor) was “neurite outgrowth was induced”.
